“Also recorded” adds a separate entry of the source.
Molecular target: T1, hNpr1 (Homo sapiens, UniProt P16066)
T1 sequence (P16066 33-1061): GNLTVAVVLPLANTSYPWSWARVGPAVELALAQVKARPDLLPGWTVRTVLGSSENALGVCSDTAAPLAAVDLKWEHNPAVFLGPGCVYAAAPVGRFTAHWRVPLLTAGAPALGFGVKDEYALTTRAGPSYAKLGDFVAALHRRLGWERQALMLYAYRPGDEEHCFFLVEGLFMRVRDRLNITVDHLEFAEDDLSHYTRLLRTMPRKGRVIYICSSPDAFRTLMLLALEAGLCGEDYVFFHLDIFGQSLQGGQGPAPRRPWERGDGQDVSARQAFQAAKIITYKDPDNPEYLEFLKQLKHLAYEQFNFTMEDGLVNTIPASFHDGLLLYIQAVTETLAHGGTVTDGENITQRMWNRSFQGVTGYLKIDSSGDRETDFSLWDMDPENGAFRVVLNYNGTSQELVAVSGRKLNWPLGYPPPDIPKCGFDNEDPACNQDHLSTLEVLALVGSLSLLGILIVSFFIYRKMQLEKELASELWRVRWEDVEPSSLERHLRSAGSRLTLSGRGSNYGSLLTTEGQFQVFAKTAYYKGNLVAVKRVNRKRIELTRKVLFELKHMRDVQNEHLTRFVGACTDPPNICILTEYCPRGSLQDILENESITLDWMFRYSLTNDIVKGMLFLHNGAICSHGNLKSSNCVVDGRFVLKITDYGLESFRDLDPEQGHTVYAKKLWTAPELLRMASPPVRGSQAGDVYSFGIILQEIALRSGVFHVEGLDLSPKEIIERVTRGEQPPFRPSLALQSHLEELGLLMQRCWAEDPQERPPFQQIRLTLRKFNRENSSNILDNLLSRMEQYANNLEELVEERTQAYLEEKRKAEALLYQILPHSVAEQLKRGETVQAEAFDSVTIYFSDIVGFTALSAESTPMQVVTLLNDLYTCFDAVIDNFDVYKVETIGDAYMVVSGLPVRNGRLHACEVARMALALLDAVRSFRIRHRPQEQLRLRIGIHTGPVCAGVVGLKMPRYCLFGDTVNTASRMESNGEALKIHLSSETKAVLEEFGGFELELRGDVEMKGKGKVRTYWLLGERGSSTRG
Experiment: GloSensor assay in 96-well format, HEK-hNpr1-cGMP-sensor cells
Assay type: cell-based
Set-up: Reversibility of hNpr1 inhibition after washing: dose or concentration left out as unconfirmed
Settings: for Imax [%] (mean ± SEM), GloSensor 96-well format / IC50: 60 pM hNppa 5 minutes after compound; for IC50: read-out: IC50 [μM] (mean ± SEM), GloSensor 96-well format; for Effect on hNppa concentration-response at fixed antagonist concentration: 5 μM antagonist, increasing hNppa, GloSensor and membrane cyclase assays (FIGS. 5B-C); for Basal (unstimulated) hNpr1 activity: HEK-hNpr1-cGMP-sensor cells, no agonist; for Ki: calculated with Cheng-Prusoff equation from Table 3, read-out: Ki hNpr1 GloSensor™ [μM] (mean ± SEM)
Procedure: Before the measurement (24 hours in advance), 3×10^4 cells were seeded into white 96-well plates (PerkinElmer, Waltham, Mass.), coated with 0.1% poly(D-lysine), and assays conducted as recommended by the manufacturer (Promega). Medium was aspirated and cells were loaded for two hours at room temperature with 2% GoSensor™ reagent diluted in CO2-independent media (ThermoFisher) supplemented with 2 mM L-glutamine and 10% FBS (assay medium). Luminescence was measured on a BioTek Synergy™ NEO (Winooski, Vt.) plate reader at room temperature. After a baseline measurement of 3-5 minutes, assay medium as a control or assay medium with agonist was manually added, and luminescence was measured for 30 minutes at ˜ 1/60 Hz. For compounds tested for Npr1 and Npr2 inhibition, the compounds were added after baseline measurements, and luminescence was read for 5 minutes before addition of agonist. Luminescence was then normalized to baseline measurements and plotted against the time. Ligand-induced changes of cGMP production were quantified by determining the area under the curve. To determine efficacy and potency of agonists, ligand-induced changes were normalized to medium only addition and plotted against the ligand concentration. […] To quantify […] of compounds, compound-induced changes of agonist-induced cGMP production were normalized to vehicle controls, plotted against compound concentration, and fit with a four-parameter logistic regression. Effects of A-71915 on basal mNpr1 activity were fitted with a bell-shaped regression (equation indicated below).
Additional screens of the fifteen candidates corroborated hNpr1 inhibition. In particular, HEK-hNpr1-cGMP-sensor cells were seeded in 96-wells and stimulated with 60 pM hNppa 5 minutes after addition of candidate compounds or A-71915 and luminescence was measured for 30 minutes. Inhibitors were titrated to calculate apparent potency (IC50) and efficacy (Imax) of inhibition of hNppa-induced cGMP production.

In the case of `Cc1nn2c(c1-c1ccccc1OCc1ccccc1)N(C(=O)Cc1ccc3c(c1)OCO3)CCC2` [JS-8, 2-(benzo[d][1,3]dioxol-5-yl)-1-(3-(2-(benzyloxy)phenyl)-2-methyl-6,7-dihydropyrazolo[1,5-a]pyrimidin-4(5H)-yl)ethan-1-one], the “Imax [%] (mean ± SEM), GloSensor 96-well format” value (“Imax [%] (mean ± SEM)” for short) is reported as −98.8 ± 0.7%, the IC50 is reported as 1.2 ± 0.1 µM and the “Effect on hNppa concentration-response at fixed antagonist concentration” value is reported as “reduced maximal responses even at extremely high hNppa concentrations”. The “Reversibility of hNpr1 inhibition after washing” value (5 minutes compound, 5-minute washing step, then hNppa) was “a single washing step was sufficient to completely recover hNpr1 activity; also recorded: reversible”, the “Basal (unstimulated) hNpr1 activity” value was “dose dependently inhibited” and the Ki was 0.2 ± 0.013 µM.
In the case of `Cc1noc(C)c1-c1cc(-c2ccccc2Oc2ccccc2)cn2cncc12` [JS-5, 3,5-dimethyl-4-(6-(2-phenoxyphenyl)imidazo[1,5-a]pyridin-8-yl)isoxazole], the “Imax [%] (mean ± SEM)” value is reported as −99.9 ± 0.1%, the IC50 is reported as 7.4 ± 0.3 µM and the “Effect on hNppa concentration-response at fixed antagonist concentration” value is reported as “reduced maximal responses even at extremely high hNppa concentrations”. The “Basal (unstimulated) hNpr1 activity” value was “dose dependently inhibited” and the Ki was 1.18 ± 0.048 µM.
With `Cc1nn2c(c1-c1ccccc1OCc1ccccc1)N(C(=O)Cc1ccccn1)CCC2` [JS-9, 1-(3-(2-(benzyloxy)phenyl)-2-methyl-6,7-dihydropyrazolo[1,5-a]pyrimidin-4(5H)-yl)-2-(pyridin-2-yl)ethan-1-one] the “Imax [%] (mean ± SEM)” value was −93.4 ± 6.4%, the IC50 was 3.1 ± 1.4 µM and the Ki was 0.49 ± 0.215 µM.
In the case of `CN(Cc1ccccc1)C(=O)c1cn2ccnc(-c3ccccc3)c2n1` [JS-14, N-benzyl-N-methyl-8-phenylimidazo[1,2-a]pyrazine-2-carboxamide], the IC50 is reported as 3.1 ± 1.1 µM and the Ki is reported as 0.5 ± 0.179 µM.
In the case of `COc1ccc(C2(C(=O)N3CCC4(CC3)c3nccn3-c3ccccc3CN4C)CC2)cc1` [JS-12, (1-(4-methoxyphenyl)cyclopropyl)(5-methyl-5,6-dihydrospiro[benzo[f]imidazo[1,2-a][1,4]diazepine-4,4′-piperidin]-1′-yl)methanone], the “Imax [%] (mean ± SEM)” value is reported as −96.0 ± 1.3%, the IC50 is reported as 1.3 ± 0.002 µM and the Ki is reported as 0.21 ± 0.0002 µM.
In the case of `O=C(NCc1cccnc1)c1cnc2[nH]nc(-c3ccccc3)c2n1` [JS-7, 3-phenyl-N-(pyridin-3-ylmethyl)-1H-pyrazolo[3,4-b]pyrazine-5-carboxamide], the IC50 is reported as 1.2 ± 0.5 µM and the Ki is reported as 0.19 ± 0.085 µM.
For `Cc1nn2c(c1-c1ccccc1Oc1ccccc1)N(C(=O)Cc1ccc3c(c1)OCO3)CCC2` [JS-10, 2-(benzo[d][1,3]dioxol-5-yl)-1-(2-methyl-3-(2-phenoxyphenyl)-6,7-dihydropyrazolo[1,5-a]pyrimidin-4(5H)-yl)ethan-1-one], the “Imax [%] (mean ± SEM)” value was −98.3 ± 1.7%, the IC50 was 6.7 ± 6.7 µM and the Ki was 1.07 ± 1.08 µM.
In the case of `COc1ccccc1-c1n[nH]c2ncc(C(=O)NCc3cccnc3)nc12` [JS-6, 3-(2-methoxyphenyl)-N-(pyridin-3-ylmethyl)-1H-pyrazolo[3,4-b]pyrazine-5-carboxamide], the “Imax [%] (mean ± SEM)” value is reported as −94.2 ± 5.3%, the IC50 is reported as 1.9 ± 0.1 µM and the Ki is reported as 0.31 ± 0.023 µM.
`Cc1cc(CNC(=O)c2ccc3c(c2)n(CC2CC2)c(=O)n3C2CCCCC2)on1` [JS-11, 1-cyclohexyl-3-(cyclopropylmethyl)-N-((3-methylisoxazol-5-yl)methyl)-2-oxo-2,3-dihydro-1H-benzo[d]imidazole-5-carboxamide] was tested, and the “Imax [%] (mean ± SEM)” value was −96.3 ± 1.3%, the IC50 was 1.9 ± 0.8 µM and the “Basal (unstimulated) hNpr1 activity” value was “dose dependently inhibited”. It also gave a Ki of 0.3 ± 0.134 µM.
With `N#Cc1ccccc1CN1CCCC(C(=O)NCc2ccccc2)CCNC(=O)CC1` (stereo not shown) [JS-13, N-benzyl-1-(2-cyanobenzyl)-4-oxo-1,5-diazacycloundecane-8-carboxamide] the “Imax [%] (mean ± SEM)” value was −96.1 ± 0.4%, the IC50 was 1.1 ± 0.1 µM and the Ki was 0.18 ± 0.011 µM.
For `COc1cc(CN2CCC(C)(NC(C)=O)CC2)cc(-c2ccncc2)c1` [JS-4, N-(1-(3-methoxy-5-(pyridin-4-yl)benzyl)-4-methylpiperidin-4-yl)acetamide], the “Imax [%] (mean ± SEM)” value was −95.5 ± 1.2%, the IC50 was 1.1 ± 0.01 µM and the Ki was 0.18 ± 0.002 µM.
For `CCC(CC)c1cc([C@H]2CN3CC[C@H]2C[C@@H]3CNS(=O)(=O)c2cccs2)nc(-c2ccncc2)n1` [JS-3, N-(((2R,4S,5R)-5-(6-(pentan-3-yl)-2-(pyridin-4-yl)pyrimidin-4-yl)quinuclidin-2-yl)methyl)thiophene-2-sulfonamide], the “Imax [%] (mean ± SEM)” value was −99.4 ± 0.6%, the IC50 was 3.1 ± 0.6 µM and the Ki was 0.5 ± 0.102 µM.

— US11324725B2, “Compositions and methods for the inhibition of pruritus” (The United States of America, as represented by the …, priority 2017, dated 2022)
